{"source": "patent US10064858B2", "about": "“Methods and compositions for treating bacterial infections with iron chelators” (THE UNITED STATES OF AMERICA, AS REPRESENTED BY THE …, priority 2011, dated 2018)", "key": {"[1]": {"system": "A. baumannii strain AB19606", "assay": "Growth (OD600) with chelator, Rifampin or both", "format": "cell-based", "conditions": "1.5×MIC Apo6619 in combination with ¾×MIC Rifampicin", "experimental": "A. baumannii strain AB19606 was grown in CAMHB and challenged with 1.5×MIC compound 4 (Var) or 1.5×MIC Triapine (Tri) with or without 0.75×MIC Rifampin (Rif). Growth was estimated by absorbance at 600 nm (y-axis) at 0 or 24 hours."}, "E. coli O157:H7": {"system": "E. coli O157:H7", "assay": "Time-kill assay, Apo6619 with Rifampin", "format": "cell-based", "conditions": "1.5×MIC Apo6619 in combination with 0.75×MIC Rifampin; 0, 5 and 24 hours", "experimental": "Reductions in colony forming units (CFU)/mL were determined over time (time-kill assay) after exposure to VK28 and deferiprone (DFP), the two iron chelators that performed best in MIC assays when compared to controls. To better represent the iron content found in the human body, MIC and time-kill assays were also determined in minimal media and tissue culture media. Time-Kill assays were performed as previously described in G. P. Neupane et al., “In vitro time-kill activities of ciprofloxacin alone and in combination with the iron chelator deferasirox against Vibrio vulnificus,” European Journal of Clinical Microbiology and Infectious Diseases, 407-410 (2010); and R. L. White, et al., “Comparison of Three Different In Vitro Methods of Detecting synergy: Time-Kill, Checkerboard, and E test,” Journal of Antimicrobial Agents and Chemotherapy, 1914-1918 (1996). Initial inocula, for example 1×10^6 CFU/mL or 1×10^7 CFU/mL were challenged with iron chelator with and/or without an antibiotic. […] Time-kill results were analyzed by determining the change in log 10 numbers of CFU/ml at 0, 6, and 24 h, compared to counts at 0 h. […]\nIn this example, time-kill assays were performed as described in Example 9 using Apo6619 as the iron chelator in combination with Rifampin against E. coli O157:H7. […] Time-kill results were analyzed by determining the change in log 10 numbers of CFU/mL at 0, 5 and 24 hours."}, "[2]": {"system": "AB5075, a stain of A. baumannii (Ab)", "assay": "Development of rifampin resistance over 7 days (OD600)", "format": "cell-based", "conditions": "ApoL1 in combination with rifampin; 7 days", "experimental": "Development of antibiotic-resistant strains is an ongoing problem in the treatment of bacterial infections. In some embodiments, the present technology provides methods and compositions for reducing, inhibiting or preventing formation of antibiotic-resistant bacterial strains. In some embodiments, the iron chelator of the present technology is administered to a patient as a prophylactic before antibiotic treatment or during antibiotic treatment. In some embodiments, the iron chelator is added concurrently with an antibiotic.\nCultures of AB5075, a stain of A. baumannii (Ab), was cultured in the presence of Rifampin alone, the iron chelator ApoL1 alone or Rifampin combination with ApoL1 for 7 days."}, "KP ndm": {"system": "KP ndm", "assay": "Checkerboard assay, chelator with antibiotic (FIC)", "format": "cell-based, K. pneumonia", "description": "(§1) Drug interactions were initially evaluated with the “checkerboard” microdilution design, which provided a matrix of all drug combinations assayed in terms of fractions of the previously determined MIC. The checkerboard microdilution design is described in R. J. Tallarida, “Drug Synergism: Its Detection and Applications,” Journal of Pharmacology and Experimental Therapeutics, 865-872 (2001); and in R. L. White, et al., (1996), supra. FIGS. 39A and 39B show the wellplates having different concentrations of iron chelator and antibiotic, as labeled along the x-axis and y-axis.\n(§2) The checkerboard assay was used to asses other combinations of iron chelators and antibiotics. The fractional inhibitory concentration index (FIC), which was calculated as follows: FIC=(MIC A in combination/MIC A)+(MIC B in combination/MIC B). Interaction was defined as synergistic if the FIC was <1.0, preferably <0.5, no interaction if the FIC was >1.0 and <4.0, and antagonistic if the FIC was >4.0.\n(§3) The assay was run against the multi-drug resistant bacterial species AB 19606, AB 17978, KP ndm, PA PAO1, PA 27853, EC 35718, and EC 43888. Blank spaces indicate concentrations not tested. […] Against the species PA PAO1 and PA 27853, all the antibiotics except for Ami."}, "PA PAO1, PA 27853": {"system": "PA PAO1, PA 27853", "assay": "Checkerboard assay, chelator with antibiotic (FIC)", "format": "cell-based, P. aeruginosa", "description": "as §1, §2, §3"}, "Escherichia coli": {"system": "Escherichia coli", "assay": "Growth (OD600) with VK28 in M9 media with magnesium / calcium", "format": "cell-based", "conditions": "24 hours", "experimental": "Escherichia coli was grown similar to as described in Example 19 in M9 media containing 2 mM MgSO4 for 24 hours in the presence of 0 μg/ml, 50 μg/ml, 100 μg/ml, or 200 μg/ml VK28. The OD600 was measured at 0, 4, and 24 hour and the results are shown in the time-kill curves of FIG. 18.\n(§4) In this example, strains of MR Staphylococcus aureus (MRSA), Acinetobacter baumannii (Acinetobacter), Escherichia coli (E. coli), and Pseudomonas aeruginosa (Pseudomonas) were grown in M9 media in the presence of 2 mM MgSO4 and 1.35 mM CaCl2 for 24 hours in the presence or absence of 0 μg/ml, 50 μg/ml, 100 μg/ml, or 200 μg/ml of VK28. The OD600 was measured at 24 hour and the results are shown in the bar graph of FIG. 21."}, "Acinetobacter baumannii": {"system": "Acinetobacter baumannii", "assay": "Growth (OD600) with VK28 in M9 media with magnesium / calcium", "format": "cell-based", "conditions": "24 hours", "experimental": "Acinetobacter baumannii was grown similar to as described in Example 21 in M9 media containing 2 mM MgSO4 for 24 hours in the presence of 0 μg/ml, 50 μg/ml, 100 μg/ml, or 200 μg/ml VK28. The OD600 was measured at 0, 4, and 24 hour and the results are shown in the time-kill curves of FIG. 19.\nas §4"}, "[3]": {"conditions": "mouse; systemically/intravenously; cited from earlier work"}, "MRSA ATCC SA43300": {"system": "MRSA ATCC SA43300", "assay": "Time-kill assay in CAMHB", "format": "cell-based, S. aureus", "conditions": "1×MIC and 2×MIC VK28", "experimental": "Reductions in colony forming units (CFU)/mL were determined over time (time-kill assay) after exposure to VK28 and deferiprone (DFP), the two iron chelators that performed best in MIC assays when compared to controls. To better represent the iron content found in the human body, MIC and time-kill assays were also determined in minimal media and tissue culture media. Time-Kill assays were performed as previously described in G. P. Neupane et al., “In vitro time-kill activities of ciprofloxacin alone and in combination with the iron chelator deferasirox against Vibrio vulnificus,” European Journal of Clinical Microbiology and Infectious Diseases, 407-410 (2010); and R. L. White, et al., “Comparison of Three Different In Vitro Methods of Detecting synergy: Time-Kill, Checkerboard, and E test,” Journal of Antimicrobial Agents and Chemotherapy, 1914-1918 (1996). Initial inocula, for example 1×10^6 CFU/mL or 1×10^7 CFU/mL were challenged with iron chelator with and/or without an antibiotic. Cells were allowed to grow in CAMHB at 37° C. for 24 hours. Time-kill results were analyzed by determining the change in log 10 numbers of CFU/ml at 0, 6, and 24 h, compared to counts at 0 h. […]"}, "[4]": {"conditions": "M9 with 2 mM MgSO4, 50-200 μg/ml VK28"}, "[5]": {"conditions": "M9 with 2 mM MgSO4 and 1.35 mM CaCl2"}}, "note": "“Also recorded” adds a separate entry of the source.", "data": [{"molecule": "CNC(=O)c1c(O)c(=O)cc(C)n1C1CC1", "note": "[Apo6619, 1-cyclopropyl-3-hydroxy-6-methyl-4-oxo-1,4-dihydro-pyridine-2-carboxylic acid methylamide]", "values": [{"measurement": "growth (absorbance at 600 nm) at 24 hour", "setting": "[1]", "result": "synergistic effect in inhibiting growth of AB19606"}, {"measurement": "time kill curves", "setting": "E. coli O157:H7", "result": "combinational effect"}]}, {"molecule": "Cc1c(O)c(=O)ccn1C", "note": "[ApoL1, 3-hydroxy-1,2-dimethyl-4(1H)-pyridone]", "values": [{"measurement": "growth of rifampin-resistant strains", "setting": "[2]", "result": "inhibits growth of an antibiotic resistant Ab strain over 7 days; also recorded: inhibition of rifampin-resistant strains of Ab over the 7 days"}, {"measurement": "FIC", "setting": "KP ndm; in combination with Colisitin", "result": 1.25}, {"measurement": "FIC", "setting": "KP ndm; in combination with Rifampin", "result": 0.75}, {"measurement": "FIC", "setting": "PA PAO1, PA 27853; PA 27853, in combination with Amikacin", "result": 1.25}, {"measurement": "FIC", "setting": "PA PAO1, PA 27853; PA 27853, in combination with Cefotaxine", "result": 0.75}, {"measurement": "FIC", "setting": "PA PAO1, PA 27853; PA 27853, in combination with Colisitin", "result": 0.75}, {"measurement": "FIC", "setting": "PA PAO1, PA 27853; PA 27853, in combination with Doxycycline", "result": 0.75}, {"measurement": "FIC", "setting": "PA PAO1, PA 27853; PA 27853, in combination with Rifampin", "result": 0.75}, {"measurement": "FIC", "setting": "PA PAO1, PA 27853; PA PAO1, in combination with Cefotaxine", "result": 0.75}, {"measurement": "FIC", "setting": "PA PAO1, PA 27853; PA PAO1, in combination with Colisitin", "result": 0.75}, {"measurement": "FIC", "setting": "PA PAO1, PA 27853; PA PAO1, in combination with Doxycycline", "result": 0.75}, {"measurement": "FIC", "setting": "PA PAO1, PA 27853; PA PAO1, in combination with Rifampin", "result": 0.75}]}, {"molecule": "OCCN1CCN(Cc2ccc(O)c3ncccc23)CC1", "note": "[VK28, 5-(4-(2-hydroxyethyl)piperazin-1-ylmethyl)-8-hydroxyquinoline]", "values": [{"measurement": "inhibition of growth (OD600)", "setting": "Escherichia coli; [4]", "result": "inhibition of growth of E. coli is not reduced in the presence of magnesium and calcium"}, {"measurement": "inhibition of growth (OD600)", "setting": "Escherichia coli; [5]", "result": "inhibition of growth of a number of strains of bacteria is not reduced in the presence of magnesium and calcium"}, {"measurement": "inhibition of growth (OD600)", "setting": "Acinetobacter baumannii; [4]", "result": "inhibition of growth of Acinetobacter baumannii is not reduced in the presence of magnesium"}, {"measurement": "inhibition of growth (OD600)", "setting": "Acinetobacter baumannii; [5]", "result": "inhibition of growth of a number of strains of bacteria is not reduced in the presence of magnesium and calcium"}, {"measurement": "dose showing toxicity", "setting": "[3]", "result": 30, "unit": "mg/kg"}, {"measurement": "time-kill effect", "setting": "MRSA ATCC SA43300", "result": "bacteriostatic (considered bacteriostatic if the inoculum's size was reduced by 0 to <3 log 10 CFU/ml)"}]}]}
